# Reference: patent US20100150887A1, “Tissue Progenitor Cells That Overexpress ERG” (priority 2007, published 2010)
# Tested on: HERG overexpressing cells
# Experiment: Dofetilide responsiveness of action potentials
# Details: action potential after 1, 2 or 3 minute treatment (FIGS. 3A-D)
# Protocol: AP is shown with-out DOF (FIG. 3A), or after 1 minute (FIG. 3B), 2 minute (FIG. 3C), or 3 minute treatments (FIG. 3D).
smiles,measurement,value
"CN(CCOc1ccc(NS(C)(=O)=O)cc1)CCc1ccc(NS(C)(=O)=O)cc1 [dofetilide, Dofetilide]",sensitivity to the effects of dofetilide,sensitive
